Test results from patent US20250236589A1, “THERAPEUTIC PHENETHYLAMINE COMPOSITIONS AND METHODS OF USE” (Cybin IRL Limited, priority 2022, published 2025).
pEC50, pKi: −log10 of the molar value.

Legend:
[1] = test system: 5-HT7 (h) (subtype “a” or “b” not specified); assay: Off-target screen, radioligand displacement at 10 μM; assay type: binding, human; settings: agonist radioligand
human alpha2A receptor = human alpha2A receptor (Homo sapiens (Human), UniProt P08913); assay: alpha2A receptor binding ([3H]rauwolscine)
Chain of human alpha2A receptor (P08913 whole entry): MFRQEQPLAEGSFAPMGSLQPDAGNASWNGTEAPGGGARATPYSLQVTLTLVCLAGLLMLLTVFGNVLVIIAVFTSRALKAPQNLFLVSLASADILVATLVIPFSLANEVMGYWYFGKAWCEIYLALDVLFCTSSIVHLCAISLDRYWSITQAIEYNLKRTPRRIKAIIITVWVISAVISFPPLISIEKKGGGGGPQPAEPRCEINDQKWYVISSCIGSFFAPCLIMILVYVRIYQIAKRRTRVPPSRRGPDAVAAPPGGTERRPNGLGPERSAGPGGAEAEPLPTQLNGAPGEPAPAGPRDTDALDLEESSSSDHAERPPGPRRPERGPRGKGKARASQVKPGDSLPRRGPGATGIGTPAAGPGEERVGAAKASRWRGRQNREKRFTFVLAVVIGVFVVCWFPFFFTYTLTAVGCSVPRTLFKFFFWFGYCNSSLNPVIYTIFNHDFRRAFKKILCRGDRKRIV

5-HT2A receptor [2] = molecular target: T1, 5-HT2A receptor (Homo sapiens (Human), UniProt P28223); assay: 5-HT2A radioligand competition binding ([3H]LSD or [3H]ketanserin)
[3] = test system: bdnf, homer1, Egr2, cFos mRNA (frontal cortex); assay: Brain markers of neuroplasticity, gene expression in frontal cortex; assay type: in vivo, mouse
Method: To evaluate the effects of I-1 on brain markers of neuroplasticity, male C57BL/6J mice were dosed as described in Table 10.
On Day 4, the animals were euthanized 2 hours post-dose. The left frontal cortex was dissected and stored in RNAlater.
Data were log transformed and analyzed by one-way analysis of variance. Each treatment was compared to vehicle by multiple comparisons. […] Moreover, increased homer1 expression, which is associated with the formation of postsynaptic scaffolds that cluster and colocalize NMDAR and mGluR was observed (FIG. 57C); and increased Egr2 expression, a […] that has been proposed to be a marker for psychedelic activation of 5-HT2A receptors (Gonzalez-Maeso et al., Transcriptome fingerprints distinguish hallucinogenic and nonhallucinogenic 5-hydroxytryptamine 2A receptor agonist effects in mouse somatosensory cortex. J Neurosci. 2003; 23(26), 8836-43) was observed (FIG. 57D). Upregulation of bdnf, a neurotrophin that regulates the survival and growth of neurons and influences synaptic efficiency and plasticity, was also observed (FIG. 57A).

5-HT1A receptors = 5-HT1A receptors (Homo sapiens (Human), UniProt P08908); assay: 5-HT1A receptor function; assay type: cell-based
Method: I-1 was also a potent 5-HT2 agonist, but at 10 μM, it inhibited >80% radioligand binding to nine other targets (see Table 6). […] I-1 inhibited <90% of radioligand binding to the other seven off-targets.

5-HT2A receptor [4] = molecular target: T1, 5-HT2A receptor; assay: 5-HT2A radioligand binding ([125I](±)DOI)
[5] = In vitro liver microsome stability (RLM); assay type: in vitro ADME; settings: rat, rat liver microsomes, 0.5 mg/mL microsomes, NADPH, read-out: RLM, t1/2
[6] = PK profile in Wistar rats (plasma, brain, urine); assay type: in vivo, rat
Method: PK profile in Rats. To evaluate the full PK profile for I-1 in rats, plasma and brain pharmacokinetic and urinary excretion of I-1 in male Wistar rats after IV dose at 1 mg/kg and an oral (p.o.) dose at 5 mg/kg administration were determined. Plasma, brain, and urine samples were collected at specified time points after single dose administration of I-1 and quantification of I-1 in the samples was accomplished using LC-MS/MS. The pharmacokinetic parameters were determined as described above.

[7] = In vitro liver microsome stability (HLM); assay type: in vitro ADME; settings: human, human liver microsomes, 0.5 mg/mL microsomes, NADPH, read-out: HLM, t1/2
Method: In vitro stability was determined in Human (HLM), Rat (RLM), Mouse (MsLM), and dog (DLM) Liver Microsomes. All liver microsomes were purchased from a commercial supplier (e.g. XenoTech). The reaction mixture, minus NADPH, was prepared as described below. The test compound was added into the reaction mixture at a final concentration of 1 μM or co-dosed with their deuterated analog(s) at 1 μM each. The control compound, testosterone, was run simultaneously with the test compound in a separate reaction. The reaction mixture (without cofactor) was equilibrated in a shaking water bath at 37° C. for 5 minutes. The reaction was initiated by the addition of the cofactor, and the mixture was incubated in a shaking water bath at 37° C. Aliquots (150 μL) were withdrawn at 0, 5, 10, 20, 30, 60, and 120 minutes. Test compound and testosterone samples were immediately combined with 150 μL of ice-cold acetonitrile (ACN) containing 0.1% formic acid and internal standard to terminate the reaction. The samples were then mixed and centrifuged to precipitate proteins. All samples were assayed by LC-MS/MS using electrospray ionization. […] Half-lives were calculated using GraphPad software, fitting to a single-phase exponential decay equation.

[8] = 2 h after fourth dose of 0.3 mg/kg s.c. (group C) vs vehicle
[9] = 2 h after single 3 mg/kg s.c. (group B) vs vehicle
[10] = male, Wistar, rat, po, brain, p.o. 5 mg/kg
[11] = male, Wistar, rat, po, plasma, p.o. 5 mg/kg
[12] = male, Wistar, rat, brain, IV 1 mg/kg
[13] = male, Wistar, rat, plasma, IV 1 mg/kg

Which “inhibition at 10 µM” value [1] does the source give for `COc1cc(CC(C)N)c(OC)cc1I` (racemic) [DOI, (±)-2,5-dimethoxy-4-iodoamphetamine, reference compound] here?
The value was 58.4% inhibition at 10 μM.

What does the source list for `COc1cc(SC(F)(F)F)c(OC)cc1CCN` [Compound I-1, 2-(2,5-dimethoxy-4-((trifluoromethyl)thio)phenyl)ethan-1-amine]?
pKi (human alpha2A receptor): 7.18; pKi (5-HT2A receptor [2]): 7.27; affinity at 5-HT2A receptors (in words) (5-HT2A receptor [2]): superior affinity; pKi (5-HT2A receptor [2]; read-out: 5-HT2A, Ki, [3H]ketanserin, high-affinity active state): 8.60; Egr2 mRNA expression [3, 8]: Increased expression; homer1 mRNA expression [3, 8]: Increased expression; Egr2 (krox20) mRNA expression [3, 9]: Increased expression; bdnf mRNA expression [3, 9]: Increased expression; cFos mRNA expression [3, 9]: Increased expression; homer1 mRNA expression [3, 9]: Increased expression; pEC50 (5-HT1A receptors): 7.06; inhibition at 10 µM (5-HT2A receptor [4]): > 80%; binding selectivity for 5-HT2A over 5-HT2B (5-HT2A receptor [4]; Ki, [125I]DOI): ~19 fold; pKi (5-HT2A receptor [4]; radioligand [125I](±)DOI): 9.46; half-life at 1 μM [5]: 0.92 h; mean total amount recovered in urine ([6]; IV 1 mg/kg, n=2): 718 ng; % F (AUCINF) ([6]; absolute oral bioavailability, p.o. 5 mg/kg): 19.1%; Cmax, brain concentration ([6]; brain, IV 1 mg/kg): 890 ng/g; T1/2 ([6]; brain, IV 1 mg/kg): 2.44 h; Cmax, brain concentration ([6]; brain, p.o. 5 mg/kg): 402 ng/g; T1/2 ([6]; brain, p.o. 5 mg/kg): 4.71 h; total systemic clearance relative to total hepatic blood flow ([6]; hepatic blood flow 3.3 L/hr/kg): approximately 6 fold; head twitching observed ([6]; immediately after IV 1 mg/kg, 1.5 hr after oral 5 mg/kg): mild to moderate-grade head twitching; Tmax ([6]; male, Wistar, rat, brain, iv, 1 mg/kg, IV 1 mg/kg): 0.5 h; Tmax ([6]; male, Wistar, rat, brain, po, 5 mg/kg, p.o. 5 mg/kg): 2 h; Tmax ([6]; male, Wistar, rat, plasma, iv, 1 mg/kg, IV 1 mg/kg): 0.083 h; AUC(0-inf) [6, 10]: 2880 ng·h/mL; AUC(0-t) [6, 10]: 1860 ng·h/mL; Cmax [6, 10]: 402 ng/mL; MRT last [6, 10]: 3.3 h; half-life [6, 10]: 4.71 h; AUC(0-inf) [6, 11]: 49.7 ng·h/mL; AUC(0-t) [6, 11]: 40.3 ng·h/mL; Cmax [6, 11]: 18.6 ng/mL; MRT last [6, 11]: 2.25 h; half-life [6, 11]: 3.53 h; CL renal ([6]; male, Wistar, rat, urine, IV 1 mg/kg, read-out: Renal clearance (converted)): 1.14 mL/min/kg; dose excreted ([6]; male, Wistar, rat, urine, IV 1 mg/kg, read-out: percentage recovery in urine): 0.07%; AUC(0-inf) [6, 12]: 3260 ng·h/mL; AUC(0-t) [6, 12]: 2910 ng·h/mL; Cmax [6, 12]: 890 ng/mL; MRT last [6, 12]: 2.54 h; half-life [6, 12]: 2.44 h; AUC(0-inf) [6, 13]: 50.7 ng·h/mL; AUC(0-t) [6, 13]: 42.2 ng·h/mL; Cmax [6, 13]: 54.1 ng/mL; MRT last [6, 13]: 0.62 h; clearance [6, 13]: 328 mL/min/kg; half-life [6, 13]: 0.78 h; C0 ([6]; male, Wistar, rat, plasma, IV 1 mg/kg, extrapolated): 67.2 ng/mL; Vd ([6]; male, Wistar, rat, plasma, IV 1 mg/kg, read-out: Vz): 22.2 L/kg; Cl ([6]; plasma, IV 1 mg/kg): 328 mL/min/kg; T1/2 ([6]; plasma, IV 1 mg/kg): 0.78 h; T1/2 ([6]; plasma, p.o. 5 mg/kg): 3.53 h; volume of distribution relative to total body water ([6]; total body water 0.7 L/kg): approximately 32 fold; half-life at 1 μM [7]: > 2 h
